Measurements: the NIST ThermoML archive (doi:10.1021/je0600810)

How the values were obtained:
[1] = φn = volume fraction of the nth substance listed; settings: 101 kPa, Liquid
[2] = 101.33 kPa, Liquid; for viscosity: Capillary tube (Ostwald / Ubbelohde) method

CO [methanol] + O
[1]
Settings | mass density, 298.15 K [kg/m3] | mass density, 308.15 K [kg/m3] | mass density, 318.15 K [kg/m3] | viscosity, 298.15 K [mPa·s] | viscosity, 308.15 K [mPa·s] | viscosity, 318.15 K [mPa·s]
φ1 = 0.01 | 982.97 | 979.73 | 976.04 | 1.084 | 0.8665 | 0.702
φ1 = 0.2 | 969.63 | 966.32 | 961.62 | 1.311 | 1.022 | 0.8075
φ1 = 0.3 | 956.2 | 951.6 | 946.26 | 1.471 | 1.142 | 0.8957

CO [methanol]
[2]
Settings | mass density [kg/m3] | viscosity [mPa·s]
298.15 K | 786.59 | 0.5446
308.15 K | 777.28 | 0.4747
318.15 K | 767.74 | 0.4185
